Test results as given in a melting point compilation (Tetko et al.).

Structure (SMILES)	melting point
N=C(c1ccccc1)c1ccccc1	-30 °C
COc1ccc(COC(C)=O)cc1	84 °C
O=C(c1ccccc1)C1(O)CCCCC1	48 °C
CCCCNC(=O)NS(=O)(=O)c1ccc(N)cc1	144 °C
O=C1C=CC2(CCC23C=CC(=O)O3)O1 (stereo not drawn)	158 °C
CCC(C)(C)S	-104 °C
c1cc2c3c(ccc4c3c1CCC4)CCC2	133 °C
C=C1CCC2OC2(C)CCC2C1CC2(C)C (single isomer, unassigned; (-))	62.5 °C
COc1c(Br)cc(C(=O)O)cc1Br	224 to 226 °C
O=C(O)C=Cc1ccc2c(c1)OCO2	242 to 244 °C
ClCc1ccc(OCc2ccccc2)c(OCc2ccccc2)c1	41 to 44 °C
Cc1nc(O)nc(O)c1C	297 to 300 °C
CC1(C)CON(Cc2ccccc2Cl)C1=O	33.9 °C
CN(C(=O)OC(C)(C)C)C(C)(C)C(=O)O	153 to 157 °C
CCOC(=O)c1cnn(C)c1S(=O)(=O)NC(=O)Nc1nc(OC)cc(OC)n1	182 °C
CCC(CO)NC(=O)C1C=C2c3cccc4c3c(cn4C)CC2N(C)C1 (stereo not drawn)	195 °C
CC1(C)OC(CO)C(CO)O1 (single isomer, unassigned; (+))	47 to 51 °C
CC(=O)OCC1C(=O)C2(C)CCC1C2(C)C (stereo not drawn)	148 °C
S=C=Nc1ccc(N2CCOCC2)nc1	121 to 122 °C
O=C(CCCl)c1ccccc1	48.5 °C
Cc1ccc(C=C[N+](=O)[O-])cc1	96 to 99 °C
CCCCCC#CC(=O)O	4 °C
COc1ccc(-c2nnc3n2NC(c2ccc(O)c(OC)c2)S3)cc1 (stereo not drawn)	173 °C
CCOC(=O)c1cc(C(=O)OCC)cc(C(=O)OCC)c1	134 °C
c1ccc(Oc2nc(-c3ccccc3)nc3nc4ccccc4n23)cc1	247 °C
C=C/C=C(C)/C=N/Nc1ccc([N+](=O)[O-])cc1[N+](=O)[O-]	171 °C
NS(=O)(=O)c1ccc(SCCCO)c([N+](=O)[O-])c1	163 °C

Structure (SMILES)	melting point
O=C(c1ccccc1)C(c1ccccc1)(c1ccccc1)c1ccccc1	182 °C
CC(=O)NC(CC(=O)O)C(=O)O (stereo not drawn)	138 °C
CC(O)C(O)C(O)C(O)C=O (stereo not drawn)	122 °C
COC(=O)c1cnc(Br)s1	63 °C
O=[N+]([O-])OC1COC2C(O[N+](=O)[O-])COC12 (stereo not drawn)	61 °C
Cn1cnc([N+](=O)[O-])c1Sc1ncnc2nc[nH]c12	244 °C
NP(=O)(Oc1ccccc1)Oc1ccccc1	149 °C
CN(C)c1ccc(/C=C(\C#N)c2nc3ccccc3n2C)cc1	151 °C
O=C(O)/C=C/c1ccc(C(F)(F)F)cc1	230 to 234 °C
CC(N)CC(=O)O (stereo not drawn)	193 °C
C=C(C)C=C(C)C	-114 °C
O=C(O)CP(=O)(O)O	144 °C
CCCCCCCc1ccc(C(=O)O)cc1	102 °C
CCCSc1ncccc1C(=O)O	161 °C
O=C(CCl)c1ccc(C(=O)C(Cl)Cl)cc1	147 °C
NC(=O)C1CCCNC1 (stereo not drawn)	102 to 108 °C
CCOC(=O)c1c(SC)nn(C(N)=O)c1N	155 °C
N#Cc1ccnc(N2CCCCC2)c1	55 to 57 °C
CCC(C(=O)O)C1(O)CCCCC1 (stereo not drawn)	81.5 °C
Cc1nc(CCl)c(C)o1	34 to 37 °C
CCCCCC#CCC(=O)O	17 °C
CCCCOC(=O)c1ccccc1O	-5.9 °C
CC(C)(C)NC(=O)[C@@H]1CC2CCCCC2CN1 (stereo partly drawn)	115 to 117 °C
CCOC(=O)/C=C/[C@@H]1[C@@H](c2ccccc2)N1C(=O)c1ccccc1	118 °C
O=[N+]([O-])c1cccnc1Cl	101 °C
COC(=O)c1nccnc1N	171 °C
C[Si](C)(C)C1=CC2(CCCCC2)CC1=O	56 °C

Structure (SMILES)	melting point
Cn1ncc2cc([N+](=O)[O-])ccc21	160 °C
CCOC(=O)c1ccsc1N	42 to 44 °C
CN1CCc2c(sc(N)c2C#N)C1	192 to 194 °C
OCc1cccnc1N1CCCC1	74 to 76 °C
COc1cc(Cc2cnc(N)nc2N)cc(OC)c1Br	226 °C
CC(C)C(C)C=CC(C)C1CCC2C3=CC=C4CC(O)CCC4(C)C3=CCC21C (stereo not drawn)	146 °C
CC(=Nc1c(O)ccc2ccccc12)c1c(O)c2ccccc2n(-c2ccccc2)c1=O	219 °C
OC(C1CCCCC1)(C1CCCCC1)C1CCCCC1	94 to 96 °C
COC(=O)c1cc(C(=O)OC)c(C(=O)OC)cc1C(=O)OC	144 °C
O=S(=O)(O)CCNC1CCCCC1	320 °C
C#CC1(O)CCC2C3CCC4=CCCCC4C3C(=C)CC21CC (stereo not drawn)	110 °C
CCC(=O)c1c(O)cc(O)cc1O	176 °C
CCCCCCCCOc1ccc(C(=O)OC)cc1	35 °C
O=C(O)Cn1cc(Cl)c(=O)c(Cl)c1	259 to 263 °C
Oc1ccc(O)c(C=NCCN=Cc2cc(O)ccc2O)c1	125 to 127 °C
O=[N+]([O-])c1cn[nH]c1	161 °C
O=C(Cl)CCCCl	-47 °C
CCNC(=S)NN	80 to 85 °C
O=c1ccc2cc(OC3OC(CO)C(O)C(O)C3O)c(O)cc2o1 (stereo not drawn)	205 °C
CC1(C)[C@H](C(=O)OC(C#N)c2cccc(Oc3ccccc3)c2)[C@@H]1C=C(Cl)Cl (stereo partly drawn)	79 °C
CC(C)NCC(O)COc1cccc2[nH]ccc12 (stereo not drawn)	170 °C
ICCCCCCCCCCI	30 °C
N=C(N)NC(N)=S	172 °C
Oc1ccc2cc[nH]c2c1	124 to 130 °C
CN(c1c(Br)cc(Br)cc1Br)c1c([N+](=O)[O-])cc([N+](=O)[O-])cc1C(F)(F)F	150 °C

Further lines, results first:

melting point	Structure (SMILES)
235 °C	CC(=O)c1cc(C(C)=O)c(N)cc1N
244 °C	CC1=NC(=Cc2cccc3ccccc23)C(=O)O1
142 °C	O=C(O)c1ccccc1S(=O)(=O)O
259 to 261 °C	O=C(O)c1cccc(-c2cnco2)c1
217 to 221 °C	O=C1OC(=O)c2c(F)ccc(F)c21
280 °C	Oc1cc(C(F)(F)F)nc2cc(Cl)ccc12
167 to 168 °C	O=C(C=Cc1ccc(Br)cc1)c1ccc(Cl)cc1
29 °C	Nc1c(F)ccc(F)c1Cl
209 °C	CCCOC(=O)C1=C(C)NC(=S)NC1c1cccc([N+](=O)[O-])c1 (stereo not drawn)
320 to 322 °C	O=c1[nH]c(=S)[nH]c2ccccc12
166 °C	O=C1C=C(NCc2ccncc2)C(=O)c2ccccc21
110 to 114 °C	O=[N+]([O-])c1ccc(Cl)cc1Nc1ccccc1
221 °C	NC(=O)c1ccccc1OCC(=O)O
200 to 201 °C	Cc1nc(-c2cccc(C(=O)O)c2)cs1
231 °C	Cc1cccc(Nc2ccccc2C(=O)O)c1C
285 °C	O=C1Nc2ccc(I)cc2C1=O
59 °C	CN1C(=O)COc2ccccc21
169 °C	O=C(Nc1ccc(Oc2ccc(Cl)cc2)c(Cl)c1)c1cc(I)cc(I)c1O
82 °C	COc1cccc(C(=O)C(=O)c2cccc(OC)c2)c1
128 °C	Brc1cccc2cn[nH]c12
83 to 86 °C	Cn1nc(-c2ccc(S(=O)(=O)Cl)s2)cc1C(F)(F)F
148 °C	Cc1ccccc1/C=C(\C#N)c1nc2ccccc2s1
270 to 272 °C	ON=C1CCCc2c1nc(-c1ccccc1)n2O
165 to 167 °C	O=[N+]([O-])c1sc2ccccc2c1Br
158 to 162 °C	O=C1NCCSC1c1ccccc1 (stereo not drawn)
262 °C	O=c1ccc2ccc(O)c(O)c2o1
168 °C	Cn1c(/C(C#N)=N/Nc2c(Cl)cc(Cl)cc2Cl)nc2ccccc21

melting point	Structure (SMILES)
94 °C	CCOC(=O)c1cc2ccccc2oc1=O
250 to 253 °C	CC(=O)Nc1ccc(C2=NNC(=O)CC2)cc1
122 °C	Cc1c2ccccc2c(C)c2c1ccc1ccccc12
131 to 132 °C	Cn1cnc(C(=O)Oc2c(F)c(F)c(F)c(F)c2F)c1
38 °C	Cc1ccc(C(F)(F)F)cc1N
19 °C	Fc1c(F)c(F)c(CBr)c(F)c1F
179 to 182 °C	N#CCS(=O)(=O)Cc1ccc(Cl)cc1
75 °C	O=C(O)C(F)(F)c1ccccc1
146 °C	NC(=S)Nc1ccccc1Cl
70 °C	CC1(C)OC(=O)c2ccccc21
192 to 193 °C	O=C(O)c1cc(-c2ccc(Cl)cc2)oc1C(F)(F)F
152 °C	NC(=O)c1ccc(Cl)c([N+](=O)[O-])c1
< 20 °C	Brc1ccc(Oc2ccccc2Br)cc1Br
176 °C	CC(=O)Nc1ccc(C)c(NS(=O)(=O)C(F)(F)F)c1
134 to 136 °C	Brc1ccc(Oc2c(Br)cc(Br)cc2Br)cc1
140 to 141 °C	O=C(O)c1ccccc1C(=O)c1ccc(F)cc1
33 to 34 °C	CC(=O)c1cccc(N=C=O)c1
128 °C	O=C(O)COc1ccccc1O
62.3 °C	Clc1cc(Cl)c2ccccc2c1
136 °C	Cc1cc(O)cc(O)c1C
183 °C	O=c1c(=O)c2cc(Cl)c(Cl)cc12
73 to 74 °C	CCOC(=O)C(=NNc1ccccc1[N+](=O)[O-])C(C)=O
87.5 °C	Cc1cc(C)c(Cl)c(O)c1Cl
119 to 125 °C	O=Cc1cc(Cl)cc(C=O)c1O
80 °C	O=C(C1=NOC2C(=O)N(c3cccc4ccccc34)C(=O)C12)c1cccs1 (stereo not drawn)
207 to 210 °C	O=C(O)C=Cc1ccc(F)cc1
160 °C	c1ccc2c(-c3cccc4ccccc34)cccc2c1
